Results from patent US8815891B2, “Tricyclic derivative or pharmaceutically acceptable salts thereof, preparation method thereof, and pharmaceutical composition containing the same” (Je Il Pharmaceutical Co., Ltd., priority 2008, dated 2014).
Where a name gives a salt, the structure may show the parent alone. Read-outs that look alike come from different tables or passages of the source.

Tests used:
PARP-1 enzyme [1] = biological target: PARP-1 enzyme (Homo sapiens (Human), UniProt P09874); assay: Poly(ADP-ribose)polymerase [PARP-1] enzyme inhibitory activity (Trevigen PARP Assay kit); assay type: biochemical; settings: read-out: PARP-1 Inhibitory activity IC50
PARP-1 enzyme (Homo sapiens (Human), UniProt P09874), sequence (P09874 whole entry): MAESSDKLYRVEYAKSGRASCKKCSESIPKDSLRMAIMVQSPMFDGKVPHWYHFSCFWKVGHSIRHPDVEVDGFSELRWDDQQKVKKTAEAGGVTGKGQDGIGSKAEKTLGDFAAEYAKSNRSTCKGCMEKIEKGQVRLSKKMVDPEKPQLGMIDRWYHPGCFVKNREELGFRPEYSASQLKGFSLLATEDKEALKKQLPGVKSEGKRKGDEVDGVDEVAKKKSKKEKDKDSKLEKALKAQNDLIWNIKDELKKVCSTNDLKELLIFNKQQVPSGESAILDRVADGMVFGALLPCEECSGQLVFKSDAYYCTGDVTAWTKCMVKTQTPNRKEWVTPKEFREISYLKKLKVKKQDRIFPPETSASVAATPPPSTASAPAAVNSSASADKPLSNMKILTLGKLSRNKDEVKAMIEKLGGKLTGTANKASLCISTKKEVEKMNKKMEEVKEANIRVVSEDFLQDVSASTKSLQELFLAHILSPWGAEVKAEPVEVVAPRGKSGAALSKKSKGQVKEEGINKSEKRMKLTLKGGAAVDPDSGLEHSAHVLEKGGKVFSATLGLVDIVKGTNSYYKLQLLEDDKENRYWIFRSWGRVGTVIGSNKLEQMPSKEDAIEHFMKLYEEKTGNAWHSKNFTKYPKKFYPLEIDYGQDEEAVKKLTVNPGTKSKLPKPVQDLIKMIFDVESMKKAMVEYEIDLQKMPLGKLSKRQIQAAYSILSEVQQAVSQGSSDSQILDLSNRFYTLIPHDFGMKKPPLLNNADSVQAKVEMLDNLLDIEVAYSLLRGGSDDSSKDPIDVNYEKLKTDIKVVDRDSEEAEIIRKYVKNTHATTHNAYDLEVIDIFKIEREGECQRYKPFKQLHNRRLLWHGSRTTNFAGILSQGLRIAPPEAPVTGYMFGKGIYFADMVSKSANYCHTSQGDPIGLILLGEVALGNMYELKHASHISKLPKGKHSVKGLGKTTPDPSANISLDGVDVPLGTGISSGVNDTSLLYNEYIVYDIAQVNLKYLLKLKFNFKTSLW
Summary of the method: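 On histone-coated plates, PARP-1 (0.12 unit/well) reacted with compound for 30 min at 25 °C in a 2× cocktail of 1.95 mM NAD+, 50 μM biotinylated NAD+ and activated DNA (Tris pH 8.0, 25 mM MgCl2). Biotin-ribosylated histone was detected with streptavidin-HRP and TACS-Sapphire substrate, stopped with HCl and read at 450 nm.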

PARP-1 enzyme [2] = biological target: PARP-1 enzyme (Cricetulus griseus (Chinese hamster) (Cricetulus barabensis griseus), UniProt Q9R152); assay: Intracellular PARP inhibitory activity (NAD(P)H released by MMS-treated CHO-K1 cells); assay type: cell-based
PARP-1 enzyme (Cricetulus griseus (Chinese hamster) (Cricetulus barabensis griseus), UniProt Q9R152), sequence (Q9R152 whole entry): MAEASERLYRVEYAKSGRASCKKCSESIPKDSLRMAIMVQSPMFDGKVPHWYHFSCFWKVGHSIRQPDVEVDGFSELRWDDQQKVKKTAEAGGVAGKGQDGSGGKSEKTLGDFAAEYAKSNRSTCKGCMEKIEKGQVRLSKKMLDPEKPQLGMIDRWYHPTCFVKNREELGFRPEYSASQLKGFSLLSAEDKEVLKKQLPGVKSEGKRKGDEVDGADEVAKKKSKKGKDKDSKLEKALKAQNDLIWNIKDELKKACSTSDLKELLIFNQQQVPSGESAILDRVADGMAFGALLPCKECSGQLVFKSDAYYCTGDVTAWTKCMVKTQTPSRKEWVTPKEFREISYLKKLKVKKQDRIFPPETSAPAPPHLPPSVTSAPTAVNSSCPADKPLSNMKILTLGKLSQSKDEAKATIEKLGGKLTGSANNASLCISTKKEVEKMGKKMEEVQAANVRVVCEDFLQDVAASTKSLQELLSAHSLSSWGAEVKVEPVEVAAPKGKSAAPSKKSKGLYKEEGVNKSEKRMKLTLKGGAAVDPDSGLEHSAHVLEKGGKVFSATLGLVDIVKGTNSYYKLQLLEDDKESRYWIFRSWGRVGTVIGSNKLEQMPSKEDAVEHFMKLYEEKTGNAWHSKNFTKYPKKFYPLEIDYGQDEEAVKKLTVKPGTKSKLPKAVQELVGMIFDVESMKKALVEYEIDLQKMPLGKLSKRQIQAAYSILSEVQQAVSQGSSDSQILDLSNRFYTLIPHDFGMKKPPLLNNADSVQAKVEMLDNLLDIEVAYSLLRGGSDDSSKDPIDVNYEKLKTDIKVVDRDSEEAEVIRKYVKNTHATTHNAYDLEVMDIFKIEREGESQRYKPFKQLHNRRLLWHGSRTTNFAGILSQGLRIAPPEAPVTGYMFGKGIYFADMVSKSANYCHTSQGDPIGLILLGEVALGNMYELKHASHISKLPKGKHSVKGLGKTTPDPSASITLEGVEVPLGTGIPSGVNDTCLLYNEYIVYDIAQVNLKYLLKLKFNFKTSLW
Method: In order to verify the ability of the compounds of the present invention to inhibit the PARP-1 enzyme activity, the amount of NAD(P)H accumulated on cell culture medium was measured.
The Chinese hamster ovary cells (CHO-K1) were cultured in RPMI1640 culture medium containing 10% fetal bovine serum (FBS). The cultured CHO-K1 cells were seeded into 96 well plate by 2.9×10^3 cells/well, and cultured for 16 hours under culture condition of 37° C., 5% CO2. After the culture, the cells were treated with the compounds of the Examples at varying concentrations, and cultured at 37° C. for 2 hours. […] The amount of […] released to the culture medium 3, 4, 5 hours after the treatment with MMS was quantified at 450 nm using Wallac EnVision™ (PerkinElmer Oy, Turku, Finland). The transference numbers of the compounds at varying concentrations according to the present invention are the average values obtained from four wells, and the results were calculated using regression analysis.
The Chinese hamster ovary cells (CHO-K1) were treated with the compounds at varying concentration according to the present invention, and the amount of NAD(P)H released into the culture medium 4 hours after the MMS treatment was quantified.

A549 cell line = assay: Cell growth inhibition of cancer cell lines (SRB assay), A549; assay type: cell-based; settings: for SN-38 PF50 / Temozolomide PF50: 2 μM compound; for SN-38 PF50: GI50 SN-38 alone / GI50 with compound; for Temozolomide PF50: GI50 temozolomide alone / GI50 with compound; for GI50: Homo sapiens, 72 hours
Method: (§1) The tests on cell growth inhibitory activity were performed with respect to A549 (US, ATCC), SK-OV-3 (Korea Research Institute of Chemical Technology; KRICT), HT-29 (US, ATCC), MCF-7 cell (US, ATCC), using Sulforhodamin-B <SRB> Assay (1989, US National Cancer Institute (NCI)) which was developed to measure the in vitro anti-cancer activity of the drug. […] The samples of the compounds of the Examples according to the present invention were used for the tests, and before the tests, the samples were dissolved in dimethylsulfoxide and diluted with the culture medium (RPMI 1640) to be used. The final concentration of the sample was varied in the range of 0.3˜100 μM. After the culture medium was removed from the 96 well plates, the diluted sample solution was added by 100 μl, and cultured in 37° C., 5% CO2 culture medium for 72 hours. The time zero (Tz) plates were collected at the time point of adding the sample. Upon completing the culture, the medium was removed from each well along with Tz plate, then cold 10% trichloroacetic acid (TCA) was added by 100 μl per well. The wells were left at 4° C. for 1 hour, so that the cells were fixed into the bottom of the plates. After the cells were fixed, the plates were rinsed with water five to six times to remove the remaining trichloroacetic acid solution, and moisture was completely dried at room temperature. The cells were dyed for 30 minutes by adding the dye solution in which 0.4% sulforhodamine-B was dissolved in 1% acetic acid solution, by 100 μl per dried wells. The above was rinsed again with 1% acetic acid solution five to six times to ensure that sulforhodamine-B which had not attached to the cells was removed. The plates were again dried at room temperature. 100 μl of 10 mM tris-buffer was then added to dissolve the dye, and the optical density (OD) at 520 nm was measured with the microplate reader. GI50 of the sample regarding cancer cell was calculated as explained below. Time zero (Tz), control value (C) and test value (T) were obtained, in which Tz corresponds to OD value of time at which the sample is applied and culture is started, C corresponds to OD value of the well which is cultured without treatment with the sample, and T corresponds to OD value of the well which is treated with the sample and then cultured. The degree of cell growth inhibition of the sample was measured using: If […] [Mathematical Formula 1]
(§2) Further, the ability of Examples 2, 42, 49, 52, 72, 74, 101 to increase growth inhibition effect of temozolomide and SN-38 at 2 μM was determined.

SK-OV-3 Cell line = assay: Cell growth inhibition of cancer cell lines (SRB assay), SK-OV-3; assay type: cell-based; settings: for SN-38 PF50 / Temozolomide PF50: 2 μM compound; for GI50: Homo sapiens, 72 hours
Method: as §1, §2

HT-29 Cell line = assay: Cell growth inhibition of cancer cell lines (SRB assay), HT-29; assay type: cell-based; settings: for SN-38 PF50 / Temozolomide PF50: 2 μM compound; for GI50: Homo sapiens, 72 hours
Method: as §1, §2

MCF-7 Cell line = assay: Cell growth inhibition of cancer cell lines (SRB assay), MCF-7; assay type: cell-based; settings: for SN-38 PF50 / Temozolomide PF50: 2 μM compound; for GI50: Homo sapiens, MCF7, 72 hours
Method: as §1, §2

[3] = PARP-1 enzyme, histone ribosylation, 450 nm

SMILES	IC50 (PARP-1 enzyme [1]; [3]) [µM]	IC50 (PARP-1 enzyme [2]) [µM]	SN-38 PF50 (A549 cell line)	Temozolomide PF50 (A549 cell line)	GI50 (A549 cell line) [µM]	SN-38 PF50 (SK-OV-3 Cell line)	Temozolomide PF50 (SK-OV-3 Cell line)	GI50 (SK-OV-3 Cell line) [µM]	SN-38 PF50 (HT-29 Cell line)	Temozolomide PF50 (HT-29 Cell line)	GI50 (HT-29 Cell line) [µM]	SN-38 PF50 (MCF-7 Cell line)	Temozolomide PF50 (MCF-7 Cell line)	GI50 (MCF-7 Cell line) [µM]	IC50 (PARP-1 enzyme [1]) [µM]
COc1cccc2[nH]c(=O)c3c(c12)NCCC3.Cl [Example 2, 10-Methoxy-1,2,3,4-tetrahydrobenzo[h][1,6]naphthyridine-5(6H)-one hydrochloride]	0.6	0.92	2.2	2.4	59	1.2	>3.2	50	1.4	>1.5	70	1.4	1.7	51	–
O=c1[nH]c2ccc(OCCCCN3CCCCC3)cc2c2c1CCCN2 [Example 29, 9-[4-(Piperidine-1yl)butoxy]-1,2,3,4-tetrahydrobenzo[h][1,6]naphthyridine-5(6H)-one dihydrochloride]	–	–	1.5	2.0	> 100	1.5	>1.7	> 100	1.5	>1.2	91	2.2	2.1	> 100	2.85
CCN(CC)Cc1ccc2c3c(c(=O)[nH]c2c1)CCCN3 [Example 42, 8-[(Diethylamino)methyl]-1,2,3,4-tetrahydrobenzo[h][1,6]naphthyridine-5(6H)-one dihydrochloride]	–	0.85	1.6	2.3	> 100	1.6	>2.1	> 100	2.1	>1.4	81	1.6	1.6	75	0.22
CNCc1ccc2c3c(c(=O)[nH]c2c1)CCCN3 [Example 52, 8-[(Methylamino)methyl]-1,2,3,4-tetrahydrobenzo[h][1,6]naphthyridine-5(6H)-one dihydrochloride]	–	–	2.2	1.5	> 100	1.4	>2.2	> 100	1.4	>1.3	90	1.1	1.5	> 100	0.07
COc1cc(CN(C)C)cc2[nH]c(=O)c3c(c12)NCCC3 [Example 72, 8-[(Dimethylamino)methyl]-10-methoxy-1,2,3,4-tetrahydrobenzo[h][1,6]naphthyridine-5(6H)-one dihydrochloride]	–	0.09	3.8	3.4	> 100	1.8	>10.2	> 100	2.2	>5.2	> 100	2.6	1.7	54	0.08
CNCc1cc(OC)c2c3c(c(=O)[nH]c2c1)CCCN3 [Example 73, 10-Methoxy-8-[(methylamino)methyl]-1,2,3,4-tetrahydrobenzo[h][1,6]naphthyridine-5(6H)-one dihydrochloride]	–	1.39	–	–	–	–	–	–	–	–	–	–	–	–	0.1
COc1cc(CNC(C)(C)C)cc2[nH]c(=O)c3c(c12)NCCC3 [Example 87, 8-[(t-Butylamino)methyl]-10-methoxy-1,2,3,4-tetrahydrobenzo[h][1,6]naphthyridine-5(6H)-one dihydrochloride]	–	0.82	–	–	–	–	–	–	–	–	–	–	–	–	0.61
CCOc1cc(CNC)cc2[nH]c(=O)c3c(c12)NCCC3 [Example 103, 10-Etoxy-8-[(methylamino)methyl]-1,2,3,4-tetrahydrobenzo[h][1,6]naphthyridine-5(6H)-one dihydrochloride]	0.12	0.82	–	–	–	–	–	–	–	–	–	–	–	–	–
CCNCc1cc(OCC)c2c3c(c(=O)[nH]c2c1)CCCN3 [Example 104, 10-Etoxy-8-[(ethylamino)methyl]-1,2,3,4-tetrahydrobenzo[h][1,6]naphthyridine-5(6H)-one dihydrochloride]	0.06	1.65	–	–	–	–	–	–	–	–	–	–	–	–	–
COc1cc(CN2CCSCC2)cc2[nH]c(=O)c3c(c12)NCCC3 [Example 106, 10-Methoxy-8-(thiomorpholinomethyl)-1,2,3,4-tetrahydrobenzo[h][1,6]naphthyridine-5(6H)-one dihydrochloride]	–	0.29	–	–	–	–	–	–	–	–	–	–	–	–	0.09
COc1cc(CN2CCC(N3CCOCC3)CC2)cc2[nH]c(=O)c3c(c12)NCCC3 [Example 108, 10-Methoxy-8-[(4-morpholinopiperidine-1-yl)methyl]-1,2,3,4-tetrahydrobenzo[h][1,6]naphthyridine-5(6H)-one trihydrochloride]	–	0.11	–	–	–	–	–	–	–	–	–	–	–	–	0.14
COc1cc(CN)cc2[nH]c(=O)c3c(c12)NCCC3 [Example 109, 8-(Aminomethyl)-10-methoxy-1,2,3,4-tetrahydrobenzo[h][1,6]naphthyridine-5(6H)-one dihydrochloride]	–	0.94	–	–	–	–	–	–	–	–	–	–	–	–	0.07
CCCOc1cc(CN(C)C)cc2[nH]c(=O)c3c(c12)NCCC3 [Example 110, 8-[(Dimethylamino)methyl)]-10-propoxy-1,2,3,4-tetrahydrobenzo[h][1,6]naphthyridine-5(6H)-one dihydrochloride]	0.08	0.09	–	–	–	–	–	–	–	–	–	–	–	–	–
CCCOc1cc(CN2CCOCC2)cc2[nH]c(=O)c3c(c12)NCCC3 [Example 111, 8-(Morpholinomethyl)-10-propoxy-1,2,3,4-tetrahydrobenzo[h][1,6]naphthyridine-5(6H)-one dihydrochloride]	–	1.33	–	–	–	–	–	–	–	–	–	–	–	–	0.96
CCOc1cc(CN)cc2[nH]c(=O)c3c(c12)NCCC3 [Example 113, 8-(Aminomethyl)-10-etoxy-1,2,3,4-tetrahydrobenzo[h][1,6]naphthyridine-5 (6H)-one dihydrochloride]	0.1	1.43	–	–	–	–	–	–	–	–	–	–	–	–	–
CCCOc1cc(CN)cc2[nH]c(=O)c3c(c12)NCCC3 [Example 114, 8-(Aminomethyl)-10-propoxy-1,2,3,4-tetrahydrobenzo[h][1,6]naphthyridine-5(6H)-one dihydrochloride]	–	1.92	–	–	–	–	–	–	–	–	–	–	–	–	0.19
COCCOc1cc(CN2CCOCC2)cc2[nH]c(=O)c3c(c12)NCCC3 [Example 117, 10-(2-Methoxyetoxy)-8-(morpholinomethyl)-1,2,3,4-tetrahydrobenzo[h][1,6]naphthyridine-5(6H)-one dihydrochloride]	0.61	6.32	–	–	–	–	–	–	–	–	–	–	–	–	–
